The structures appear in SMILES notation.

We go through 10 molecules from US11234919B2, “Compound produced by means of marine microorganism and composition for improving skin wrinkles, enhancing elasticity and skin whitening comprising same compound as active ingredient” (KOREA INSTITUTE OF OCEAN SCIENCE & TECHNOLOGY, priority 2017, dated 2022).

One assay relates to B-16 melanoma cells. The experiment in a line: Melanogenesis inhibition in B-16 melanoma cell culture. It is filed as cell-based. To be noted: for Amount of melanin produced: absorbance at 400 nm per 10^6 cells, incubation 3 days. Here is the method: The compounds shown in Table 1 were set to have final concentrations of 2 ppm and 20 ppm, and each of the compounds was added to a culture medium of B-16 melanoma cells, followed by incubation for 3 days. Thereafter, the cells were treated with trypsin, detached from the incubator, and centrifuged, and then melanin was extracted therefrom. The melanin was dissolved by addition of 1 mL of a sodium hydroxide solution (1 N) and boiling for 10 min, and then the absorbance was measured at 400 nm using a spectrometer, thereby determining the amount of melanin produced. The amount of melanin was measured as an absorbance per unit cell count (10^6 cells), and the amount of melanin production relative to the control with nothing added was calculated as an inhibition (%). The test was repeated three times.
To compare melanogenesis inhibiting activity of the compounds according to the present disclosure, 20 ppm arbutin was also tested by the same method, and the results are also shown in Table 3.

The test system of assay [1] is human-derived fibroblasts. The experiment in a line: Increase in collagen synthesis, PICP EIA kit, human fibroblast culture. It is filed as cell-based. To be noted: final concentration 20 ppm, incubation one day; for Amount of collagen production: amount of collagen production as absorbance at 450 nm; for Collagen increase (%): ratio of collagen production relative to control. How it is done:
Out of the compounds represented by Formula 2, the compounds according to the present disclosure shown in Table 1 were tested for collagen synthesis stimulating activity by addition to cultures of human-derived fibroblasts.
The measurement of synthesized collagen was conducted by quantification using a procollagen type I C-peptide enzyme immunoassay kit (PICP EIA kit).
Collagen synthetic ability was evaluated by selecting the concentrations causing no toxicity on the basis of cytotoxicity results.
In the test, the final concentration of the compounds of the present disclosure was set to 20 ppm. Each sample was added to the culture medium of human fibroblasts, followed by incubation for one day, and then the culture was taken out, and the degree of collagen synthesis was measured at each concentration through the PICP EIA kit by using a spectrometer at 450 nm. For comparison of effects, the degree of collagen synthesis was measured by the same method on a culture medium of fibroblasts with nothing added (control) and a sample with vitamin C added to a final concentration of 20 ppm. The amount of collagen production was measured as a UV absorbance, and the rate of increase in collagen production was calculated as a ratio of collagen production relative to the collagen production of the control.

The mark [2] stands for this setting: melanin production relative to control with nothing added, final concentration 2 ppm, 3 days.
Where [3] appears, read: melanin production relative to control with nothing added, final concentration 20 ppm, 3 days.

In the case of `OC[C@H]1O[C@@H](Oc2ccc(O)cc2)[C@H](O)[C@@H](O)[C@@H]1O` [Arbutin, arbutin, reference compound], in the assay with B-16 melanoma cells (Mus musculus, B16, 72 h, melanin production relative to control with nothing added, final concentration 20 ppm, 3 days), at 20 ppm the inhibition was 6.5%. Also, the “Amount of melanin produced” value with B-16 melanoma cells (final concentration 20 ppm) was 0.056 ± 0.001.
Consider `C=C(C)c1cc(O)cc(=O)o1` [Compound 1], for which the entries for the “Amount of melanin produced” value in the assay with B-16 melanoma cells (final concentration 2 ppm) and in the assay with B-16 melanoma cells (final concentration 20 ppm) were 0.047 ± 0.001 and 0.046 ± 0.001, respectively. Also, the figures for the “Inhibition (%)” value with B-16 melanoma cells (setting [2]) and in the assay on B-16 melanoma cells (setting [3]) were 21.8% and 23.5%, respectively. Besides, the “Amount of collagen production” value in assay [1] is given as 287.65. In addition, the “Collagen increase (%)” value in assay [1] was 152.2%.
`C/C=C(\C)c1oc(=O)c(C)c(O)c1C` [Compound 2]: the “Amount of melanin produced” value was 0.048 ± 0.001 in the assay with B-16 melanoma cells (final concentration 2 ppm) and 0.046 ± 0.001 in the assay on B-16 melanoma cells (final concentration 20 ppm). For the same molecule, the “Inhibition (%)” value in the assay on B-16 melanoma cells (setting [2]) was 20.0%; in the assay with B-16 melanoma cells (setting [3]) it was 23.5%. Besides, in assay [1], the “Amount of collagen production” value is 287.24. Further, the “Collagen increase (%)” value in assay [1] is recorded as 147.2%.
On to `CC/C=C(\C)c1oc(=O)c(CC)c(O)c1CC` [Compound 3], for which the “Amount of melanin produced” value with B-16 melanoma cells (final concentration 2 ppm) came out at 0.048 ± 0.001; with B-16 melanoma cells (final concentration 20 ppm) it was 0.047 ± 0.001. Besides, the “Inhibition (%)” value with B-16 melanoma cells (setting [2]) turned out to be 20.0%; in the assay on B-16 melanoma cells (setting [3]), 21.8%. Besides, in assay [1], the “Amount of collagen production” value stood at 287.24. Also, the “Collagen increase (%)” value in assay [1] is recorded as 147.2%.
For the molecule `C=C(C)c1oc(=O)cc(O)c1C(=O)O` [Compound 4], the “Amount of melanin produced” value is 0.048 ± 0.001 in the assay on B-16 melanoma cells (final concentration 2 ppm) and 0.046 ± 0.001 in the assay on B-16 melanoma cells (final concentration 20 ppm). The figures for the “Inhibition (%)” value in the assay on B-16 melanoma cells (setting [2]) and with B-16 melanoma cells (setting [3]) were 20.0% and 23.5%, respectively. Moreover, in assay [1], the “Amount of collagen production” value came to 287.61. Moreover, the “Collagen increase (%)” value in assay [1] is 152.1%.
Turning to `C/C=C(\C)c1oc(=O)c(C)cc1C` [Compound 5], the “Amount of melanin produced” value came out at 0.049 ± 0.001 with B-16 melanoma cells (final concentration 2 ppm) and 0.047 ± 0.001 with B-16 melanoma cells (final concentration 20 ppm). Also, the “Inhibition (%)” value is listed as 18.3% in the assay on B-16 melanoma cells (setting [2]) and 21.8% with B-16 melanoma cells (setting [3]). Further, in assay [1], the “Amount of collagen production” value is on record as 287.65. Also, the “Collagen increase (%)” value in assay [1] is 152.2%.
`C/C(=C\CO)c1cc(O)cc(=O)o1` [Compound 6]: the “Amount of melanin produced” value in the assay with B-16 melanoma cells (final concentration 2 ppm) is listed as 0.048 ± 0.001; with B-16 melanoma cells (final concentration 20 ppm) it was 0.046 ± 0.001. Besides, the entries for the “Inhibition (%)” value with B-16 melanoma cells (setting [2]) and in the assay on B-16 melanoma cells (setting [3]) were 18.3% and 23.5%, respectively. Besides, the “Amount of collagen production” value in assay [1] worked out at 287.61. Besides, the “Collagen increase (%)” value in assay [1] is 152.1%.
For `CCc1c(C)c(C(=O)O)c(/C(C)=C/CO)oc1=O` [Compound 9], the results for the “Amount of melanin produced” value with B-16 melanoma cells (final concentration 2 ppm) and with B-16 melanoma cells (final concentration 20 ppm) were 0.049 ± 0.001 and 0.047 ± 0.001, respectively. Also, the “Inhibition (%)” value with B-16 melanoma cells (setting [2]) amounted to 18.3%; in the assay on B-16 melanoma cells (setting [3]), 21.8%. Further, in assay [1], the “Amount of collagen production” value was 287.61. For the same molecule, in assay [1], the “Collagen increase (%)” value came out at 152.1%.
With `CC/C=C(\C)c1oc(=O)c(CC)c(C)c1CC` [Compound 10], the “Amount of melanin produced” value in the assay on B-16 melanoma cells (final concentration 2 ppm) is listed as 0.049 ± 0.001; in the assay with B-16 melanoma cells (final concentration 20 ppm), 0.047 ± 0.001. Also, the “Inhibition (%)” value in the assay on B-16 melanoma cells (setting [2]) amounted to 18.3%; with B-16 melanoma cells (setting [3]), 21.8%. Moreover, the “Amount of collagen production” value in assay [1] is 287.24. Moreover, in assay [1], the “Collagen increase (%)” value was found to be 147.2%.
Turning to `O=C1O[C@H]([C@@H](O)CO)C(O)=C1O` [Vitamin C, vitamin C, reference compound], in assay [1], the “Amount of collagen production” value is on record as 217.35 and the “Collagen increase (%)” value was determined as 115.3%.
